Measured values from patent US9963441B2, “Histone demethylase inhibitors” (CELGENE QUANTICEL RESEARCH, INC., priority 2013, dated 2018).

Target: T1, JMJD2C (Homo sapiens, UniProt Q9H3R0)
T1 construct: purchased BPS Bioscience 50105
T1 sequence (Q9H3R0 2-372): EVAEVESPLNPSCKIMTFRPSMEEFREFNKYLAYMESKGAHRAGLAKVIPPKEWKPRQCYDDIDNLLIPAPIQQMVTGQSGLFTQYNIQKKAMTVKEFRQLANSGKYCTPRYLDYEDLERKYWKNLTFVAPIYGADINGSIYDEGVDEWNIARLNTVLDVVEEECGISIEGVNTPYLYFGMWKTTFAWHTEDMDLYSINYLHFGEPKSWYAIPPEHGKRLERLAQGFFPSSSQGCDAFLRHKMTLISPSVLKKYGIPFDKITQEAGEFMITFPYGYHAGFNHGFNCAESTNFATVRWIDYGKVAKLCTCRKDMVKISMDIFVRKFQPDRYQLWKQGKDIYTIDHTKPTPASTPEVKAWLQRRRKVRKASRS
Assay: JMJD2C in vitro enzyme inhibition assay (TR-FRET)
Assay type: biochemical
Description: This assay determines the ability of a test compound to inhibit Jarid1A, Jarid1B, JMJD2C, and JMJD2A demethylase activity. […] Baculovirus expressed JMJD2C (GenBank Accession #BC143571, AA 2-372) was purchased from BPS Bioscience (Cat#50105).
The ability of test compounds to inhibit the activity of JMJD2C was determined in 384-well plate format under the following reaction conditions: 0.3 nM JMJD2C, 300 nM H3K9me3-biotin labeled peptide (Anaspec cat #64360), 2 μM alpha-ketoglutaric acid in assay buffer of 50 mM HEPES, pH7.3, 0.005% Brij35, 0.5 mM TCEP, 0.2 mg/ml BSA, 50 μM sodium L-ascorbate, and 2 μM ammonium iron(II) sulfate. Reaction product was determined quantitatively by TR-FRET after the addition of detection reagent Phycolink Streptavidin-allophycocyanin (Prozyme) and Europium-anti-di-methylated histone H3 lysine 9 (H3K9me2) antibody (PerkinElmer) in the presence of 5 mM EDTA in LANCE detection buffer (PerkinElmer) at a final concentration of 50 nM and 1 nM, respectively.
The assay reaction was initiated by the following: 2 μl of the mixture of 900 nM H3K9me3-biotin labeled peptide and 6 μM alpha-ketoglutaric acid with 2 μl of 11-point serial diluted inhibitor in 3% DMSO were added to each well of the plate, followed by the addition of 2 μl of 0.9 nM JMJD2C to initiate the reaction. […]

Structure (SMILES): Cn1cnc(-c2cc(-c3nn[nH]n3)ccn2)c1-c1ccc(Cl)c(OCc2ccccc2)c1 [Example 161, 2-[5-(4-chloro-3-phenylmethoxyphenyl)-1-methylimidazol-4-yl]-4-(2H-tetrazol-5-yl)pyridine]
- IC50: 1 to 10 µM
